The record followed here is patent publication US10611740B2, “Aryl dihydro-2H-benzo[b][1,4]oxazine sulfonamide and related compounds for use as agonists of RORγ and the treatment of disease” (Lycera Corporation, priority 2015, dated 2020).

For orientation: EC50 means the midpoint of the concentration-response curve.

This assay addresses T1, Gal4-RORγ-LBD (Homo sapiens, UniProt P51449).
T1 construct: expressed in transfected cells; host or cells: HEK-293 cells (pcDNA3.1neo plasmid)
T1 sequence (P51449 269-508 limits assumed): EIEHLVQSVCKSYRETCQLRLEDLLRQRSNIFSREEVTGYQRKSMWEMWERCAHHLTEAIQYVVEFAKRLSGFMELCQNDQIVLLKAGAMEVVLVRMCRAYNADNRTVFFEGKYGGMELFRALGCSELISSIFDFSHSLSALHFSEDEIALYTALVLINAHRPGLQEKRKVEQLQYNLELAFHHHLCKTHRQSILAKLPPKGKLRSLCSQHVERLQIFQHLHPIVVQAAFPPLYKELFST
In words: Gal4-RORγ Luciferase Reporter Assay in HEK-293T Cells. Type of assay: cell-based. The settings on record: HEK-293 cells, 2 μM ursolic acid. The procedure:
Assay procedures and results are described below.
In the following protocol, HEK-293 cells were transfected with a construct comprising the Gal4 DNA binding domain fused to the ligand binding domain of RORγ (Gal4-RORγ-LBD) in a pcDNA3.1neo plasmid, and also with a reporter construct comprising pGL4.31 Gal4-luciferase (Promega). Control cells were prepared similarly using empty pcDNA3.1neo and pGL4.31 vectors.
Trans-IT reagent (Mirus, 60 μL) at room temperature was added drop wise to OptiMEM (Invitrogen, 1.5 ml). This reagent mixture was mixed by inversion then incubated for 5 to 30 minutes at room temperature. It then was added to a solution of both expression vectors (5 μg each), mixed, and incubated at room temperature for about 20 minutes. HEK-293 cells were harvested from incubation flasks by removing the media, treating with TrypLE Express (Invitrogen), and incubating until the cells detached from the bottom of the flask (approximately 2-5 minutes). 10 Million cells were collected by centrifugation and re-suspended in 10 mL of Dulbecco's Modified Eagle Medium, High Glucose (DMEM, Invitrogen) containing 10% Fetal Bovine Serum and 100 IU each of penicillin and streptomycin. The re-suspended cells and the transfection mixture were added to a T75 flask, mixed and incubated overnight at 37° C. and 5% CO2.
The cells were harvested as described above, counted, and centrifuged to obtain the desired number of cells, then re-suspended in complete growth media at 0.75×10^6 cells/mL. The RORγ antagonist, ursolic acid, was added to the cells at a final concentration of 2 μM. Cells were plated at 20 μL of cell suspension/well (10,000-15,000 cells/well) in white tissue culture treated 384 well plates. Test compounds were dissolved at 10 mM in DMSO then diluted into complete growth medium to 5× the final intended test concentration. These drug stock solutions, 5 μL/well were added to the tissue culture plate. The final DMSO concentration was 0.2%. The plates were briefly centrifuged then incubated overnight at 37° C. and 5% CO2. To conduct the assay, the tissue culture plates were allowed to equilibrate to room temperature and One-Glo luciferase reagent (Promega, 25 μL/well) was added. The plates were briefly centrifuged then incubated at room temperature for 10 minutes. The luciferase intensity was read on an Envision plate reader (Perkin Elmer). […] The luciferase signal in the absence of ursolic acid or test compound is defined at 100. The Max Response is the upper plateau in the signal as determined by line-fit using a 4-parameter logistic model in PRISM (GraphPad).
Background: Reporter assays use an easily measured gene product as a stand-in for the process of interest.

SMILES strings stand for the structures.

As for `O=C(O)C1(C[C@H]2CN(S(=O)(=O)c3cccc(C(F)F)c3)c3cc(-c4cc(F)cc(OC(F)F)c4)ccc3O2)COC1` [Compound 51J, (S)-3-((6-(3-(difluoromethoxy)-5-fluorophenyl)-4-((3-(difluoro-methyl)phenyl)sulfonyl)-3,4-dihydro-2H-benzo[b][1,4]oxazin-2-yl)methyl)oxetane-3-carboxylic acid], the EC50 is below 500 nM and the “Gal4-RORγ Assay Max Response” value is given as “** (The symbol “**” indicates a value in the range of greater than 90 to 150)”.

For the molecule `O=C(O)C1(C[C@H]2CN(S(=O)(=O)c3cncc(C(F)(F)F)c3)c3cc(-c4cc(F)ccc4F)ccc3O2)COC1` [Compound 51K, (S)-3-((6-(2,5-difluorophenyl)-4-((5-(trifluoromethyl)pyridin-3-yl)sulfonyl)-3,4-dihydro-2H-benzo[b][1,4]oxazin-2-yl)methyl)oxetane-3-carboxylic acid], the EC50 is 500 to 5000 nM and the “Gal4-RORγ Assay Max Response” value is given as “*** (The symbol “***” indicates a value in the range of greater than 150 to 200)”.

Regarding `O=C(O)C1(C[C@H]2CN(S(=O)(=O)c3cncc(C(F)(F)F)c3)c3cc(-c4cc(F)cc(OC(F)F)c4)ccc3O2)COC1` [Compound 51L, (S)-3-((6-(3-(difluoromethoxy)-5-fluorophenyl)-4-((5-(trifluoro-methyl)pyridin-3-yl)sulfonyl)-3,4-dihydro-2H-benzo[b][1,4]oxazin-2-yl)methyl)oxetane-3-carboxylic acid], the concentration giving a half-maximal response (EC50) is below 500 nM and the “Gal4-RORγ Assay Max Response” value is reported as “** (The symbol “**” indicates a value in the range of greater than 90 to 150)”.

As to `C[C@]1(C(=O)O)C[C@H](C[C@H]2CN(S(=O)(=O)c3cccc(C(F)(F)F)c3)c3cc(-c4cc(F)cc(F)c4Cl)ccc3O2)C1` [Compound 60F, (1S,3r)-3-(((S)-6-(2-chloro-3,5-difluorophenyl)-4-((3-(trifluoro-methyl)phenyl)sulfonyl)-3,4-dihydro-2H-benzo[b][1,4]oxazin-2-yl)methyl)-1-methylcyclo-butane-1-carboxylic acid], the EC50 is below 500 nM and the “Gal4-RORγ Assay Max Response” value is given as “** (The symbol “**” indicates a value in the range of greater than 90 to 150)”.

`CC1(C(=O)O)CC(C[C@H]2CN(S(=O)(=O)c3cccc(C(F)(F)F)c3)c3cc(-c4cc(F)cc(F)c4Cl)ccc3O2)C1` (stereo partly drawn) [Compound 60G, (1R,3s)-3-(((S)-6-(2-chloro-3,5-difluorophenyl)-4-((3-(trifluoro-methyl)phenyl)sulfonyl)-3,4-dihydro-2H-benzo[b][1,4]oxazin-2-yl)methyl)-1-methylcyclo-butane-1-carboxylic acid]: the EC50 was below 500 nM and the “Gal4-RORγ Assay Max Response” value was “*** (The symbol “***” indicates a value in the range of greater than 150 to 200)”.

For the molecule `CC(=O)N[C@H]1C[C@@H]([C@H]2CN(S(=O)(=O)c3cccc(C(F)(F)F)c3)c3cc(-c4cc(F)ccc4F)ccc3O2)C1` [Compound 60L, N-((1R,3s)-3-((S)-6-(2,5-difluorophenyl)-4-((3-(trifluoro-methyl)phenyl)sulfonyl)-3,4-dihydro-2H-benzo[b][1,4]-oxazin-2-yl)cyclobutyl)-acetamide], the EC50 was below 500 nM and the “Gal4-RORγ Assay Max Response” value was “** (The symbol “**” indicates a value in the range of greater than 90 to 150)”.

As to `CC(=O)N[C@H]1C[C@H]([C@H]2CN(S(=O)(=O)c3cccc(C(F)(F)F)c3)c3cc(-c4cc(F)ccc4F)ccc3O2)C1` [Compound 60M, N-((1S,3r)-3-((S)-6-(2,5-difluorophenyl)-4-((3-(trifluoro-methyl)phenyl)sulfonyl)-3,4-dihydro-2H-benzo[b][1,4]-oxazin-2-yl)cyclobutyl)-acetamide], the EC50 was below 500 nM and the “Gal4-RORγ Assay Max Response” value is listed as “** (The symbol “**” indicates a value in the range of greater than 90 to 150)”.

As for `O=C(O)[C@]1(C[C@H]2CN(S(=O)(=O)c3cccc(C(F)(F)F)c3)c3cc(-c4cc(F)cc(OC(F)F)c4)ccc3O2)C[C@@H](O)[C@@H](O)C1` [Compound 64, (1s,3R,4S)-1-(((S)-6-(3-(difluoromethoxy)-5-fluorophenyl)-4-((3-(trifluoromethyl)phenyl)sulfonyl)-3,4-dihydro-2H-benzo[b][1,4]oxazin-2-yl)methyl)-3,4-dihydroxycyclopentane-1-carboxylic acid], the EC50 lay in the range of 500 to 5000 nM and the “Gal4-RORγ Assay Max Response” value was “** (The symbol “**” indicates a value in the range of greater than 90 to 150)”.

As to `O=C(O)[C@@]1(C[C@H]2CN(S(=O)(=O)c3cccc(C(F)(F)F)c3)c3cc(-c4cc(F)cc(OC(F)F)c4)ccc3O2)C[C@@H](O)[C@@H](O)C1` [Compound 65, (1r,3R,4S)-1-(((S)-6-(3-(difluoromethoxy)-5-fluorophenyl)-4-((3-(trifluoromethyl)phenyl)sulfonyl)-3,4-dihydro-2H-benzo[b][1,4]oxazin-2-yl)methyl)-3,4-dihydroxycyclopentane-1-carboxylic acid], the EC50 lay within 500 to 5000 nM and the “Gal4-RORγ Assay Max Response” value was “** (The symbol “**” indicates a value in the range of greater than 90 to 150)”.

On to `O=C(O)[C@]1(C[C@H]2CN(S(=O)(=O)c3cccc(C(F)(F)F)c3)c3cc(-c4cc(F)cc(OC(F)F)c4)ccc3O2)C[C@H](O)C1` [Compound 67, (1s,3S)-1-(((S)-6-(3-(difluoromethoxy)-5-fluorophenyl)-4-((3-(trifluoromethyl)phenyl)sulfonyl)-3,4-dihydro-2H-benzo[b][1,4]oxazin-2-yl)methyl)-3-hydroxycyclobutane-1-carboxylic acid], for which the EC50 was below 500 nM and the “Gal4-RORγ Assay Max Response” value was “** (The symbol “**” indicates a value in the range of greater than 90 to 150)”.

`O=C(O)[C@]1(C[C@H]2CN(S(=O)(=O)c3cccc(C(F)(F)F)c3)c3cc(-c4cc(F)cc(OC(F)F)c4)ccc3O2)C[C@@H](O)C1` [Compound 68, (1r,3R)-1-(((S)-6-(3-(difluoromethoxy)-5-fluorophenyl)-4-((3-(trifluoromethyl)phenyl)sulfonyl)-3,4-dihydro-2H-benzo[b][1,4]oxazin-2-yl)methyl)-3-hydroxycyclobutane-1-carboxylic acid]: the EC50 is below 500 nM and the “Gal4-RORγ Assay Max Response” value is “** (The symbol “**” indicates a value in the range of greater than 90 to 150)”.

Turning to `C[C@]1(C(=O)O)C[C@H](C[C@H]2CN(S(=O)(=O)c3cccc(C(F)(F)F)c3)c3cc(-c4cc(F)cc(OC(F)F)c4)ccc3O2)C1` [Compound 69, (1S,3r)-3-(((S)-6-(3-(difluoromethoxy)-5-fluorophenyl)-4-((3-(trifluoromethyl)phenyl)sulfonyl)-3,4-dihydro-2H-benzo[b][1,4]oxazin-2-yl)methyl)-1-methylcyclobutane-1-carboxylic acid], the EC50 was in the range of 500 to 5000 nM and the “Gal4-RORγ Assay Max Response” value is “** (The symbol “**” indicates a value in the range of greater than 90 to 150)”.

Turning to `C[C@]1(C(=O)O)C[C@@H](C[C@H]2CN(S(=O)(=O)c3cccc(C(F)(F)F)c3)c3cc(-c4cc(F)cc(OC(F)F)c4)ccc3O2)C1` [Compound 70, (1R,3s)-3-(((S)-6-(3-(difluoromethoxy)-5-fluorophenyl)-4-((3-(trifluoromethyl)phenyl)sulfonyl)-3,4-dihydro-2H-benzo[b][1,4]oxazin-2-yl)methyl)-1-methylcyclobutane-1-carboxylic acid], the EC50 was 500 to 5000 nM and the “Gal4-RORγ Assay Max Response” value is “*** (The symbol “***” indicates a value in the range of greater than 150 to 200)”.

Regarding `O=C(O)C1(C[C@H]2CN(S(=O)(=O)c3cccc(C(F)(F)F)c3)c3cc(-c4cccc(OC(F)(F)F)c4)ccc3O2)CCOCC1` [Compound 78K, (S)-4-((6-(3-(trifluoromethoxy)-phenyl)-4-((3-(trifluoromethyl)-phenyl)sulfonyl)-3,4-dihydro-2H-benzo[b][1.4]oxazin-2-yl)methyl)tetrahydro-2H-pyran-4-carboxylic acid], the concentration for a half-maximal effect (EC50) is below 500 nM and the “Gal4-RORγ Assay Max Response” value is “** (The symbol “**” indicates a value in the range of greater than 90 to 150)”.
